Columns and labels:
[1] = test system: dextran sodium sulfate (DSS) colitis; test: DSS colitis in mice: survival rate and HE-staining of the large intestine; assay type: in vivo, C57/BL6 Mice
Experimental: C57/BL6 Mice (female, 8 weeks old) were employed. They were bred under SPF conditions, and then used in the test. 2.5% Dextran sodium sulfate (DSS, MW 50,000) was added to drinking water (distilled water) for mice, and the mice were allowed to drink the resultant water freely for 7 days (induction of colitis). Subsequently, DHNA was administered to the mice in the following manner. DHNA was dissolved in dimethyl sulfoxide (DMSO) (0.1 g/0.5 mL). The resultant neat solution, along with ascorbic acid for stabilizing DHNA (1%), was added to drinking water (distilled water) for mice, and the mice were allowed to drink the resultant water freely for 7 days. DHNA concentration was 0.6 mg/kg or 2 mg/kg. Distilled water to which DMSO and ascorbic acid had been added in equal amounts was employed as a control group. Survival rate was that as determined for the mice on day 10 after starting administration of DHNA. The large intestine was removed from each mouse, and fixed with periodate-lysine-paraformaldehyde (PLP), whereby frozen slices were prepared. Through use of the thus-obtained frozen sections, immunohistochemical staining using labeled streptavidin-biotin (LSAB) and HE-staining were performed. In the immunohistochemical staining, anti-MAdCAM-1 and anti-β7integrin were used as primary antibodies and biotin-labeled FITC was employed as a secondary antibody.

[2] = test system: β7 positive cells; test: Immunohistochemical staining (LSAB) of large intestine sections, DSS colitis, anti-β7integrin; assay type: in vivo, C57/BL6 Mice; conditions: large intestine frozen sections, DHNA administration group
Experimental: (§1) C57/BL6 Mice (female, 8 weeks old) were employed. They were bred under SPF conditions, and then used in the test.
(§2) 2.5% Dextran sodium sulfate (DSS, MW 50,000) was added to drinking water (distilled water) for mice, and the mice were allowed to drink the resultant water freely for 7 days (induction of colitis). Subsequently, DHNA was administered to the mice in the following manner.
(§3) DHNA was dissolved in dimethyl sulfoxide (DMSO) (0.1 g/0.5 mL). The resultant neat solution, along with ascorbic acid for stabilizing DHNA (1%), was added to drinking water (distilled water) for mice, and the mice were allowed to drink the resultant water freely for 7 days. DHNA concentration was 0.6 mg/kg or 2 mg/kg. Distilled water to which DMSO and ascorbic acid had been added in equal amounts was employed as a control group.
(§4) The large intestine was removed from each mouse, and fixed with periodate-lysine-paraformaldehyde (PLP), whereby frozen slices were prepared. Through use of the thus-obtained frozen sections, immunohistochemical staining using labeled streptavidin-biotin (LSAB) and HE-staining were performed. In the immunohistochemical staining, anti-MAdCAM-1 and anti-β7integrin were used as primary antibodies and biotin-labeled FITC was employed as a secondary antibody.

[3] = test system: MAdCAM-1; test: Immunohistochemical staining (LSAB) of large intestine sections, DSS colitis, anti-MAdCAM-1; assay type: in vivo, C57/BL6 Mice; conditions: large intestine frozen sections, DHNA administration group
Experimental: as §1, §2, §3, §4

[4] = test system: Bifidobacterium bifidum; conditions: taught by WO03/016544; cited from earlier work
[5] = subject of milk intolerance; DHNA or its salts; taught by WO03/016544; cited from earlier work

## O=C(O)c1cc(O)c2ccccc2c1O [DHNA, 1,4-dihydroxy-2-naphthoic acid]
[1]; day 10 after starting the test, DHNA 0.6 mg/kg or 2 mg/kg in drinking water for 7 days after 2.5% DSS for 7 days, versus control group
  Survival rate: significantly high
[1]; large intestine, DHNA administration group versus control group
  HE-staining findings: ulcer and erosion in the epithelium, cellular infiltration, submucosal thickening: suppression of the above conditions was observed
[1]; overall conclusion, by suppressing infiltration of activated immunocytes
  Development of DSS enteritis: suppress development of DSS enteritis
[2]
  β7 positive cells (immunohistochemical staining): reduced
[3]
  Expression of adhesion molecule MAdCAM-1: suppressed
[4]
  Proliferation of Bifidobacterium bifidum: stimulating proliferation
[5]
  Abdominal discomfort after ingestion of milk: mitigate abdominal discomfort

Source: US20050137261A1, “Method for treating inflammatory bowel diseases” (MEIJI DAIRIES CORPORATION, priority 2003, published 2005)
